From patent US20070248570A1, “Pharmaceutical Compositions Containing Platinum Complexes with Secondary Xanthates and Therapeutic Uses Thereof” (priority 2003, published 2007)

How the values were obtained:
KB = assay: Cytotoxicity on human cancer cells in tissue culture, crystal violet staining; assay type: cell-based
Description: (§1) The anti-tumoral activity of compounds was determined in tissue culture media of pH of 6.8 and 7.4. Cells were incubated for 2 h with the test compounds, followed by 24-96 h incubation with regular, inhibitor free medium of pH 7.4. The substances were serially diluted in tissue culture medium of the desired pH. After incubation, surviving cells were stained with crystal violet and the optical density was measured in an ELISA reader.

LXF-289 = assay: as above; assay type: cell-based
Description: as §1

MCF-7 = assay: as above; assay type: cell-based
Description: as §1

SK-MEL-25 = assay: as above; assay type: cell-based
Description: as §1

SK-OV3 = assay: as above; assay type: cell-based
Description: as §1

Calu-6 = assay: as above; assay type: cell-based
Description: as §1

[1] = tested on: six human tumor cell lines; assay: Cytotoxic activity in a panel of six human tumor lines (comparisons and pH quotient); assay type: cell-based; settings: mean ± SD over the human tumor cell lines tested
Description: FIG. 2: Mean quotient of IC50 at pH 7.4/IC50 at pH 6.8 Mean values ±SD of IC50 at pH 7.4/IC50 at pH 6.8 for all six human tumor cell lines tested. IC50at both pH conditions were obtained for four cell lines.
Calu-6 (adenocarcinoma, lung), SK-MEL-25 (melanoma), MCF-7 (mamma carcinoma), LXF-289 (adenocarcinoma, lung), SK-OV -3 (adenocarcinoma, ovary), KB (squameous cell carcinoma, head and neck) were obtained from ATCC and were cultivated according to the instructions of the supplier at 37° C., 5% CO2 atmosphere and 100% relative humidity.
as §1, with “reader. The concentration which was needed to reduce the cell number by 50% (IC50) was determined from dose-response curves for each compound.” for “reader.”

[2] = tested on: human tumors xenotransplanted in nude mice; settings: cited from earlier work
tumor cells = settings: cited from earlier work
[3] = KB, pH 6.8, 2 h incubation, mean of four assays
[4] = KB, pH 7.4, 2 h incubation, mean of four assays
[5] = LXF-289, pH 6.8, 2 h incubation, mean of four assays
[6] = LXF-289, pH 7.4, 2 h incubation, mean of four assays
[7] = MCF-7, pH 6.8, 2 h incubation, mean of four assays
[8] = MCF-7, pH 7.4, 2 h incubation, mean of four assays
[9] = SK-MEL-25, pH 6.8, 2 h incubation, mean of four assays
[10] = SK-MEL-25, pH 7.4, 2 h incubation, mean of four assays
[11] = SK-0V-3, pH 6.8, 2 h incubation, mean of four assays
[12] = SK-0V-3, pH 7.4, 2 h incubation, mean of four assays
[13] = Calu-6, pH 6.8, 2 h incubation, mean of four assays
[14] = Calu-6, pH 7.4, 2 h incubation, mean of four assays

## N.N.[Cl][Pt][Cl] [Cisplatin, cis-dichloro-diammine-platinum(II)]
KB; [3]
  IC50: 55 ± 2 µM
KB; [4]
  IC50: 52 ± 3.3 µM
LXF-289; [5]
  IC50: 113 ± 22.3 µM
LXF-289; [6]
  IC50: 83 ± 23 µM
MCF-7; [7]
  IC50: 108 ± 27 µM
MCF-7; [8]
  IC50: 160 ± 30 µM
SK-MEL-25; [9]
  IC50: 78 ± 3.3 µM
SK-MEL-25; [10]
  IC50: 90 ± 25 µM
SK-OV3; [11]
  IC50: 64 ± 0.7 µM
SK-OV3; [12]
  IC50: 90 ± 2.77 µM
Calu-6; [13]
  IC50: 16 ± 1 µM
Calu-6; [14]
  IC50: 25 ± 5.7 µM

## CC(C)OC(=S)[S][Pt][S]C(=S)OC(C)C [Compound 15, Bis(O-isopropyl-dithiocarbonato)platinum(II)]
[1]
  Mean quotient of IC50 at pH 7.4/IC50 at pH 6.8: 2.18±0.49
KB; [3]
  IC50: 6 ± 0.4 µM
KB; [4]
  IC50: 10 ± 0.9 µM
LXF-289; [5]
  IC50: 10 ± 1.7 µM
LXF-289; [6]
  IC50: 30 ± 0.4 µM
MCF-7; [7]
  IC50: 3 ± 0.9 µM
MCF-7; [8]
  IC50: 7 ± 3 µM
SK-MEL-25; [9]
  IC50: 6 ± 0.4 µM
SK-MEL-25; [10]
  IC50: 12 ± 1.5 µM
SK-OV3; [11]
  IC50: 14 ± 2.1 µM
SK-OV3; [12]
  IC50: 33 ± 8 µM
Calu-6; [13]
  IC50: 6 ± 0.6 µM
Calu-6; [14]
  IC50: 10 ± 0.6 µM

## COC(=S)[S][Pt][S]C(=S)OC [r1, Bis(O-methyl-dithiocarbonato)platinum (II)]
KB; pH 6.8
  IC50: 20 ± 1 µM
KB; pH 7.4
  IC50: 49 ± 2 µM
LXF-289; pH 6.8
  IC50: 39 ± 9.5 µM
LXF-289; pH 7.4
  IC50: 102 ± 19.3 µM
MCF-7; pH 6.8
  IC50: 7 ± 1 µM
MCF-7; pH 7.4
  IC50: 19 ± 4.4 µM
SK-MEL-25; pH 6.8
  IC50: 14 ± 5 µM
SK-MEL-25; pH 7.4
  IC50: 80 ± 25.9 µM
SK-OV3; pH 6.8
  IC50: 26 ± 2.4 µM
SK-OV3; pH 7.4
  IC50: 47 ± 2.9 µM
Calu-6; pH 6.8
  IC50: 11 ± 2.9 µM
Calu-6; pH 7.4
  IC50: 21 ± 5.6 µM

## CCOC(=S)[S][Pt][S]C(=S)OCC [r2, Bis(O-ethyl-dithiocarbonato)platinum(II)]
KB; [3]
  IC50: 18 ± 4 µM
KB; [4]
  IC50: 58 ± 5 µM
LXF-289; [5]
  IC50: 45 ± 8 µM
LXF-289; [6]
  IC50: 91 ± 24.9 µM
MCF-7; [7]
  IC50: 12 ± 0.2 µM
MCF-7; [8]
  IC50: 47 ± 5.3 µM
SK-MEL-25; [9]
  IC50: 21 ± 3 µM
SK-MEL-25; [10]
  IC50: 56 ± 6.2 µM
SK-OV3; [11]
  IC50: 86 ± 3.2 µM
SK-OV3; [12]
  IC50: 98 ± 16.5 µM
Calu-6; [13]
  IC50: 21 ± 3.9 µM
Calu-6; [14]
  IC50: 24 ± 0.9 µM
[2]; mouse, in vivo
  toxicity on kidneys, small intestines and white blood cell count: significantly lower toxicity
[2]; versus cisplatin
  anti-tumoral activity on human tumors xenotransplanted in nude mice: comparable to cisplatin
Tumor cells
  cytotoxicity in media of pH 6.8 as compared to pH 7.4: significantly higher cytotoxicity

## Bis(O-cyclobutyl-dithiocarbonato)platinum(II) [Compound 18]
KB; [3]
  IC50: 6 ± 0.6 µM
KB; [4]
  IC50: 20 ± 2.9 µM
LXF-289; [5]
  IC50: 37 ± 1.4 µM
LXF-289; [6]
  IC50: 44 ± 0.8 µM
MCF-7; [7]
  IC50: 11 ± 0.8 µM
MCF-7; [8]
  IC50: 21 ± 1 µM
SK-MEL-25; [9]
  IC50: 7 ± 1 µM
SK-MEL-25; [10]
  IC50: 12 ± 3.7 µM
SK-OV3; [11]
  IC50: 17 ± 2.9 µM
SK-OV3; [12]
  IC50: 19 ± 4.1 µM
Calu-6; [13]
  IC50: 3 ± 0.4 µM
Calu-6; [14]
  IC50: 7 ± 1.2 µM

## Bis(O-propyl-dithiocarbonato)platinum(II) [r3]
KB; [3]
  IC50: 12 ± 1 µM
KB; [4]
  IC50: 38 ± 3 µM
LXF-289; [5]
  IC50: 37 ± 9 µM
LXF-289; [6]
  IC50: 49 ± 5 µM
MCF-7; [7]
  IC50: 4 ± 1 µM
MCF-7; [8]
  IC50: 9 ± 3 µM
SK-MEL-25; [9]
  IC50: 10 ± 1.5 µM
SK-MEL-25; [10]
  IC50: 21 ± 1.9 µM
SK-OV3; [11]
  IC50: 45 ± 27 µM
SK-OV3; [12]
  IC50: 50 ± 1 µM
Calu-6; [13]
  IC50: 7 ± 1.1 µM
Calu-6; [14]
  IC50: 21 ± 0.9 µM
